Tests used:
MDA-MB-231 cells [1] = experiment: Transwell invasion assay; assay type: cell-based, human; details: for inhibition of invasion, agent alone: 1b at sub-cytotoxic concentration, LY294002 or U0126 10 or 20 μM
[2] = test system: PERK, eIF2α, CHOP in MDA-MB-231 cells; experiment: Western blot of ER stress-related proteins; assay type: cell-based, human; details: 5 uM for 6, 12, 24 and 48 h
Protocol: (§1) MDA-MB-231 cells (5×10^5 cells) were incubated with Pt compound and washed with phosphate-buffered saline (PBS), lysed with radioimmunoprecipitation assay buffer (1% Triton X-100, 10% glycerol, 150 mM NaCl, 5 mM sodium fluoride, 1 mM sodium vanadate and protein inhibitor cocktail) for 15 min at 4° C. The cell lysates were centrifuged at 13,000 rpm for 15 min at 4° C. The protein concentrations of the extracts were determined using a BCA protein assay kit (Beyotime, Haimen, China). Specific amount of protein sample (30 μg) was then boiled for 5 min in a 5× sample buffer (50 mM Tris (pH 7.4), 4% sodium dodecyl sulfate (SDS), 10% glycerol and 50 μg/mL bromophenol blue) at a volume ratio of 4:1. Protein samples were subjected to SDS-polyacrylamide gel electrophoresis (PAGE), transferred to polyvinylidene difluoride membranes and immunoblotted with primary anti-bodies. After further incubation with horseradish peroxidase (HRP)-conjugated secondary antibody, the blot was stained with a chemiluminescent detection reagent and subsequently analyzed by enhanced chemiluminescence. Protein expression was visualized on Kodak Biomax X-ray film.

MDA-MB-231 = experiment: MTT assay, in vitro cytotoxicity / cell growth; assay type: cell-based, human; details: for cell growth inhibition, agent alone: 1b at sub-cytotoxic concentration, LY294002 or U0126 10 or 20 μM
[3] = test system: FAK, ERK, Akt in MDA-MB-231 cells; experiment: Western blot of phosphorylated and total FAK, ERK and Akt; assay type: cell-based, human
Protocol: as §1

chicken CAM = experiment: Chorioallantoic membrane (CAM) assay, ex vivo angiogenesis; details: VEGF 50 ng/mL, one day
Protocol: The effect of Pt complex on the ex vivo angiogenesis was determined by chorioallantoic membrane (CAM) assay. Briefly, fertilized chicken eggs were incubated at 37° C. in a humidified incubator with forced air circulation. After 5-6 days, eggs were cracked open and methylcellulose discs containing different concentrations of 1d (40 μl/egg) and VEGF (50 ng/mL) were gently implanted on top of chicken CAM. After one day incubation, the CAM was observed under a microscope (Olympus BX 40) and photographed. VEGF treatment group was used as a positive control. Three eggs per group were used in each experiment and three independent experiments were performed.

[4] = test system: MDA-MB-231 xenograft tumor tissues; experiment: Immunohistochemical analysis of tumor tissues from treated mice; assay type: in vivo, nude mice; details: 2.5 and 5.0 mg/kg
HeLa cells [5] = experiment: Confocal fluorescence microscopy co-localization with organelle probes; assay type: cell-based, human; details: 1b 5 μM
Protocol: HeLa cells (2×10^5 cells) were seeded in a one chamber slide (Nalgene; Nunc) with culture medium (2 mL per well) and incubated at 37° C. in a humidified atmosphere of 5% CO2/95% air for 24 h. After treating with 1b (5 μM) for 1 h, ER-tracker™ red (1 μM), Mitotracker® deep red (50 nM) or Lysotracker® deep red (50 nM) were incubated with cells for 10 min, and then the cells were washed with PBS twice. Confocal fluorescence images were captured using a Carl Zeiss LSM510 Meta confocal microscope with the use of 488 and 543 nm/633 nm lasers for the excitation of complex 1b and red/deep red tracker respectively, under a Plan-Apochromat 63×1.40NA oil-immersion objective.

MS1 cells [6] = experiment: Tube formation assay; assay type: cell-based; details: 3 h, sub-cytotoxic concentrations
Protocol: The In Vitro Angiogenesis Kit (CaymanChemical) was used in the tube formation assay. Firstly, the ECMatrix solution and 10× Diluent Buffer were mixed in 9:1 (v/v) ratio on ice. Then 50 μL of mixture was transferred into each well of 96-well plate and incubated at 37° C. for 1 h for polymerization. Then, around 4×10^4 of MS-1 cells in 100 μL DMEM medium was pre-mixed with different concentrations of complex and that cell-complex containing medium was added on the top of the polymerized matrix. […]

MDA-MB-231 xenografts = experiment: In vivo tumor growth inhibition; set-up: species or system nude mice; details: 5 and 2.5 mg/kg
Protocol: All experiments were followed to the guidelines of the Laboratory Animal Unit of the University of Hong Kong. Ten mice were randomly divided into two groups (5 mice for each group) for two different treatment conditions.
Around 4×10^6 of cancer cells in 100 μL of PBS were injected into right back flanks of the mice through subcutaneous injection. […] The size of the tumors were measured by a ruler every 2-3 days until the mice were sacrificed. The longest diameter (a) and shortest diameter (b) of the tumor would be picked up and the volume of the tumor could be calculated through the following formula: V=0.52×ab^2
It should be noted that the body weight of the mice were also be recorded in order to examine the side effect of the drugs.
To calculate the inhibition effect of the drug, the ratio of enlargement of tumor volume between the drug treatment group and control group would be applied in the following formula:
where Vt and Vt′ are the tumor volumes of drug treatment and control group respectively; V0 and V0′ are the tumor volume at the 0 day of drug treatment and control group respectively.

[7] = test system: uPA, MMP-9, TIMP-1 in MDA-MB-231 cells; experiment: Western blot of uPA, MMP-9 and TIMP1; assay type: cell-based, human
Protocol: as §1

[8] = test system: p15, cyclin D1/D3, CDK 4/6 in MDA-MB-231 cells; experiment: Western blot of G0/G1 phase-related proteins; assay type: cell-based, human; details: 24 h
Protocol: as §1

HUVECs [9] = experiment: Conditioned medium (VEGF)-mediated migration; assay type: cell-based, human; details: MDA-MB-231 conditioned medium VEGF 13.4 ng/mL, 24 h, sub-cytotoxic
Protocol: (§2) Human umbilical vein endothelial cells (HUVEC) were cultured in endothelial cell growth medium (ECGM): M199 medium (Life Technologies, Invitrogen) supplemented with 15 vol % fetal bovine serum at 37° C. in a humidified (5% CO2, 95% air) atmosphere.

[10] = test system: PARP, caspases 3 and 9 in MDA-MB-231 cells; experiment: Western blot of apoptosis-related proteins; assay type: cell-based, human; details: 48 h
Protocol: as §1

[11] = Blood biochemistry, systemic toxicity; details: treated vs untreated mice bearing MDA-MB-231 xenografts
HUVECs [12] = experiment: Conditioned medium (VEGF)-mediated tube formation; assay type: cell-based, human; details: MDA-MB-231 conditioned medium VEGF 13.4 ng/mL, 24 h, sub-cytotoxic
Protocol: as §2

MDA-MB-231 cells [13] = experiment: Wound closure (scratch) migration assay; assay type: cell-based, human; details: for inhibition of migration, agent alone: 1b at sub-cytotoxic concentration, LY294002 or U0126 10 or 20 μM
Protocol: MDA-MB-231 cells were cultured in 6-well plate and allowed to form a confluent monolayer for 24 h. After serum starved for 4 h, cells were scratched by pipette tips, washed with PBS and photographed by using a fluorescence microscope (20× objective). The fresh medium supplemented with 10 vol % FBS was added into each well with different concentrations of Pt complex. After incubated for 24 h, cells were photographed again at three random areas. Then the migrated cells were quantified by manual counting and inhibition ratio was expressed as % of control.

MS1 cells [14] = experiment: in vitro; assay type: cell-based
Protocol: (§3) At the same time, the cell viability under the same condition was determined by MTT assay. Again, around 4×10^4 MS-1 cells in 100 μL DMEM medium was pre-mixed with different concentrations of complex and they were seeded into 96-well plate. After 2 h, the medium was removed and fresh medium with 10% MTT was added per well and the plate was incubated for 4 h at 37° C. in a humidified atmosphere of 5% CO2. In order to solubilize the formazan for absorbance readings, 100 μl of SDS (0.1 g/ml, 0.01 M HCl) was added per well and the plate was kept in a dark and humidified chamber overnight. Finally, the absorbance at 580 nm of each well was monitored by microtiter plate reader. Each experiment was repeated three times and the results were expressed as means±standard deviation (SD).

in vitro = assay type: cell-based; details: mouse
Protocol: as §3

HeLa cells [15] = experiment: JC1 staining (mitochondrial membrane potential); assay type: cell-based, human; details: with increasing dosage, 2 h
HUVECs [16] = experiment: Conditioned medium (VEGF)-mediated transwell invasion; assay type: cell-based, human; details: MDA-MB-231 conditioned medium VEGF 13.4 ng/mL, 24 h, sub-cytotoxic
Protocol: as §2
Effects of Pt complex on the invasion of MDA-MB-231 or HUVECs cells were performed on Transwell Boyden chamber (8 μm pore, Corning, Lowel, Mass.) pre-coated with matrigel for 4 h at 37° C. The cell suspension (2.5×10^5 cells/ml, 100 μL) in serum free medium (SFM) was placed to the upper compartment of chamber. The bottom chambers were supplemented with 500 μl complete medium (10 vol % FBS) or conditioned medium (with VEGF=13.4 ng/ml from MDA-MB-231 cells) containing indicated concentrations of Pt complex. After incubated for 24 h, the non-migrant cells from the upper face were scraped using a cotton swab. The invaded cells on the lower face were fixed with methanol, stained with Giemsa, photographed by a phase-contrast microscope (200×, Nikon TS 100). The invaded cells were quantified by manual counting and inhibition ratio was expressed as % of control.

NCI-H460 = experiment: MTT assay, in vitro cytotoxicity; assay type: cell-based, human; details: 72 h
Protocol: (§4) The cell lines were maintained in cell culture media (Minimum essential medium (MEM) for HeLa; and Dulbecco's modified eagle medium (DMEM) for MDA-MB-231 and MiHa, Roswell Park Memorial Institute (RPMI) medium for NCI-H460 and HCT116 supplemented with fetal bovine serum (10 vol %), streptomycin (100 μg/ml) and penicillin (100 U/ml) in an incubator (5% CO2) at 37° C.
(§5) The inhibition of cell growth by different metal complexes were determined by MTT assay. Firstly, 4×10^3 to 8×10^3 cells were seeded on 96-well culture plates for 24 h. Then, different concentrations of complex was added into different wells by serial dilution and the cells were incubated with complex for 48-72 h. After that, 10 μl of MTT solution (5 mg/ml) was added per well and the plate was incubated for 4 h at 37° C. in a humidified atmosphere of 5% CO2. Viable cells with active metabolism converted MTT into a purple colored formazan product. In order to solubilize the formazan for absorbance readings, 100 μl of SDS (0.1 g/ml, 0.01 M HCl) was added per well and the plate was kept in a dark and humidified chamber overnight. Finally, the absorbance at 580 nm of each well was monitored by microtiter plate reader.
(§6) The growth inhibition by a specific complex was represented by IC50 (concentration of a complex causing 50% inhibition of cell growth). Each experiment was repeated three times and the results were expressed as means±standard deviation (SD).

HCT116 = experiment: MTT assay, in vitro cytotoxicity; assay type: cell-based, human; details: 72 h
Protocol: as §4, §5, §6

HeLa = experiment: MTT assay, in vitro cytotoxicity; assay type: cell-based, human; details: 72 h
Protocol: as §4, §5, §6

MiHa = experiment: MTT assay, in vitro cytotoxicity, non-tumorigenic hepatocyte; assay type: cell-based, human; details: 72 h
Protocol: as §4, §5
The growth inhibition by a specific complex was represented by IC50 (concentration of a complex causing 50% inhibition of cell growth). […]

[17] = different concentrations 24 h or 2 μM over time
[18] = increasing concentration (24 h) or incubation time (2 μM)

## CCCCN1C=CN(CCCC)[CH]1[Pt]12[n]3c(c4ccccc4c3=Nc3cccc[n+]31)=Nc1cccc[n+]12 [Complex 1b]
MDA-MB-231 cells [1]
  inhibition of invasion, agent alone: notable inhibition
MDA-MB-231 cells [1]; sub-cytotoxic concentrations, 24 h
  invasion of MDA-MB-231 cells: significant inhibition
[2]
  CHOP level: stimulated
  phosphorylated PERK level: significant up-regulation
  phosphorylated eIF2α level: stimulated
MDA-MB-231; 0.25-1 μM
  growth inhibition at the concentrations of the migration assay: insignificant growth inhibition
MDA-MB-231
  cell growth inhibition, agent alone: insignificant cell growth inhibitory effects
[3]; [17]
  phosphorylation of FAK at Tyr397: significantly suppress
  phosphorylation of FAK at Tyr925 and Tyr576/577: moderately inhibited
  total protein level of FAK: little effect
[3]; dose- and time-dependent
  phosphorylation of Akt: significantly inhibited
  phosphorylation of ERK: significantly inhibited
Chicken CAM
  ex vivo angiogenesis in CAM assay: effective ex vivo anti-angiogenic properties
[4]
  CD34 staining, blood vessel formation in tumors: significant inhibition of blood vessel formation
  DNA fragmentation (TUNEL assay) in tumor tissues: higher levels
  caspase-3 in tumor tissues: higher levels
[4]; vs control mice
  expression of Ki67 in tumor tissues: decrease
HeLa cells [5]
  Pearson's correlation coefficient for co-localization with ER-Tracker: 0.83
MS1 cells [6]
  angiogenesis (tube formation) of MS1 cells: significant inhibition
MDA-MB-231 xenografts
  death or body weight loss of mice during the treatment: did not cause any death or body weight loss
[7]; 24 h
  expression of TIMP-1: moderately increased
[7]; [18]
  expression level of MMP-9: decreased significantly
  expression level of uPA: decreased significantly
[8]
  cyclin D1/D3 and CDK 4/6 expression: down-regulation
  p15 expression: stimulation
HUVECs [9]
  CM-mediated migration of HUVECs: significantly suppressed
[10]
  cleavage of PARP and caspases 3 and 9: cleaved
[11]
  blood glucose (GLU): higher level
  blood urea nitrogen (BUN): higher level
  plasma level of aspartate aminotransferase (AST): lower
  plasma level of blood fat (CHOL): lower
  plasma level of creatine kinase (CK): lower
HUVECs [12]
  CM-mediated tube formation of HUVECs: significantly suppressed
MDA-MB-231 cells [13]
  inhibition of migration, agent alone: notable inhibition
MDA-MB-231 cells [13]; sub-cytotoxic 0.25-1 μM, 24 h
  migration of MDA-MB-231 cells: effectively inhibited
MS1 cells [14]
  cell death of MS1 cells: no significant cell death
In vitro
  viability at 3 h: > 90%
HeLa cells [15]
  JC1 ratio of orange to green fluorescence: decrease
HUVECs [16]
  CM-mediated invasion of HUVECs: significantly suppressed

## N.N.[Cl][Pt][Cl] [Cisplatin, cis-diamminedichloroplatinum]
MDA-MB-231; MTT, 72 h
  IC50: 77.2 ± 7.82 µM
NCI-H460
  IC50: 24.9 ± 3.19 µM
HCT116
  IC50: 11.8 ± 1.36 µM
HeLa
  IC50: 12.9 ± 3.84 µM
MiHa
  IC50: > 100 µM

## N#CC(=C(/N)Sc1ccccc1N)/C(C#N)=C(\N)Sc1ccccc1N [Complex U0126, reference compound]
MDA-MB-231 cells [1]
  inhibition of invasion, agent alone: notable inhibition
MDA-MB-231
  cell growth inhibition, agent alone: insignificant cell growth inhibitory effects
MDA-MB-231 cells [13]
  inhibition of migration, agent alone: notable inhibition

— patent US10577387B1, “Platinum (II) complexes containing N-heterocyclic carbene ligand and pincer ligands, synthesis, and their applications in cancer treatment” (priority 2018, dated 2020)
